# How the values were obtained:
# BlMan5_8 = molecular target: T1, BlMan5_8 (Bifidobacterium animalis, UniProt B8DWU0); assay: surface plasmon resonance, steady state, enzyme immobilised by amine coupling; assay type: binding; conditions: 10 mM MES, 150 mM NaCl, 0.005% P20, pH 6.0, 25 °C, one-site fit
# T1 construct: gene BLA_0648; mature enzyme without signal peptide (residues 1-29 removed), GH5_8 + C-terminal CBM10; N-terminal His6 tag cleaved by thrombin; E. coli BL21(DE3)
# Text: surface plasmon resonance, steady state, enzyme immobilised by amine coupling on BlMan5_8
# BlMan5_8-ΔCBM10 = molecular target: T2, BlMan5_8-ΔCBM10 (Bifidobacterium animalis, UniProt B8DWU0); assay: as above; assay type: binding; conditions: 10 mM MES, 150 mM NaCl, 0.005% P20, pH 6.0, 25 °C; one-site fit; catalytic module
# T2 construct: gene BLA_0648; catalytic GH5_8 module, C-terminal CBM10 deleted by stop codon at Ser338 in linker; signal peptide (1-29) removed; N-terminal His6 tag cleaved by thrombin; E. coli BL21(DE3)
# Text: surface plasmon resonance, steady state, enzyme immobilised by amine coupling on BlMan5_8-ΔCBM10
# [1] = catalytic module and CBM10 both bind
# T1 sequence (B8DWU0 entry or part of it): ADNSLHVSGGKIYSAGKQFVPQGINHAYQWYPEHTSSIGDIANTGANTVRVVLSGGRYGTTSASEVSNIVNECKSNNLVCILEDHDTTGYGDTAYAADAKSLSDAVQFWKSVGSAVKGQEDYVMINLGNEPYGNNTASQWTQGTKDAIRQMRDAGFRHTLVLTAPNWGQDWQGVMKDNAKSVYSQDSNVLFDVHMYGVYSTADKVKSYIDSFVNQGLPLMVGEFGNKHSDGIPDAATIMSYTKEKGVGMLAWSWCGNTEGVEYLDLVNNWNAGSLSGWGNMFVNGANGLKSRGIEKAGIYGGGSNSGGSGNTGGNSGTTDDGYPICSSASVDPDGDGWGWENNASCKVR
# T2 sequence (B8DWU0 entry or part of it, stated change not applied): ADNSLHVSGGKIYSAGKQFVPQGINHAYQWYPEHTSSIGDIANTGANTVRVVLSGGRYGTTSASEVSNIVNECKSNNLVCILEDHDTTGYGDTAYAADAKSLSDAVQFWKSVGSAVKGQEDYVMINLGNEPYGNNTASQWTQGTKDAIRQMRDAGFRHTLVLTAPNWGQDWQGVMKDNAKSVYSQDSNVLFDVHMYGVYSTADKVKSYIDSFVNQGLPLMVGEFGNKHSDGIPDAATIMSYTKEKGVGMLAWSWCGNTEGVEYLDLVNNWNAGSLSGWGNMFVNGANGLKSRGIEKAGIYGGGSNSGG
SMILES,Kd (BlMan5_8; CBM10 site suggested) [µM],Kd (BlMan5_8; [1]) [µM],Kd (BlMan5_8-ΔCBM10) [µM]
"OC[C@H]1O[C@@H](O[C@H]2[C@H](O)[C@H](O)[C@H](O[C@H]3[C@H](O)[C@H](O)[C@H](O[C@H]4[C@H](O)[C@H](O)C(O)O[C@@H]4CO)O[C@@H]3CO)O[C@@H]2CO)[C@@H](O)[C@@H](O)[C@@H]1O (some centres unmarked) [M4, mannotetraose]",5100 ± 800,–,–
"OC[C@H]1O[C@@H](O[C@H]2[C@H](O)[C@H](O)[C@H](O[C@H]3[C@H](O)[C@H](O)[C@H](O[C@H]4[C@H](O)[C@H](O)[C@H](O[C@H]5[C@H](O)[C@H](O)C(O)O[C@@H]5CO)O[C@@H]4CO)O[C@@H]3CO)O[C@@H]2CO)[C@@H](O)[C@@H](O)[C@@H]1O (some centres unmarked) [M5, mannopentaose]",–,3700 ± 300,1500 ± 300
"OC[C@H]1O[C@@H](O[C@H]2[C@H](O)[C@H](O)[C@H](O[C@H]3[C@H](O)[C@H](O)[C@H](O[C@H]4[C@H](O)[C@H](O)[C@H](O[C@H]5[C@H](O)[C@H](O)[C@H](O[C@H]6[C@H](O)[C@H](O)C(O)O[C@@H]6CO)O[C@@H]5CO)O[C@@H]4CO)O[C@@H]3CO)O[C@@H]2CO)[C@@H](O)[C@@H](O)[C@@H]1O (some centres unmarked) [M6, mannohexaose]",–,580 ± 50,240 ± 420
